Source: article PMC5286421, “Interactions of retinoids with the ABC transporters P-glycoprotein and Breast Cancer Resistance Protein” (Scientific Reports, 2017)
Like-named read-outs stand apart in the source and are kept apart here.

Experiments:
[1] = tested on: NIH 3T3 / NIH 3T3 MDR1 and MDCK / MDCK ABCG2 cells; experiment: DPH steady-state fluorescence anisotropy (membrane fluidity); settings: retinoids 100 μM; for Effect on DPH fluorescence anisotropy: cyclosporin 10 μM, Ko143 2 μM, 10 min 37 °C, all tested cell lines
[2] = ref PubChem Compound Database (CID); cited from earlier work
[3] = tested on: NIH 3T3 / NIH 3T3 MDR1 and MDCK / MDCK ABCG2 cells; experiment: TMA-DPH steady-state fluorescence anisotropy (membrane fluidity); settings: retinoids 100 μM, cyclosporin 10 μM, Ko143 2 μM; 10 min 37 °C
ABCG2 [4] = target: T1, ABCG2 (Homo sapiens, UniProt Q9UNQ0); experiment: Mitoxantrone accumulation test (ABCG2 transport activity) in MDCK ABCG2 cells; settings: 20 min pre-treatment 37 °C, 5 μM mitoxantrone 40 min
T1 sequence (Q9UNQ0 1-655): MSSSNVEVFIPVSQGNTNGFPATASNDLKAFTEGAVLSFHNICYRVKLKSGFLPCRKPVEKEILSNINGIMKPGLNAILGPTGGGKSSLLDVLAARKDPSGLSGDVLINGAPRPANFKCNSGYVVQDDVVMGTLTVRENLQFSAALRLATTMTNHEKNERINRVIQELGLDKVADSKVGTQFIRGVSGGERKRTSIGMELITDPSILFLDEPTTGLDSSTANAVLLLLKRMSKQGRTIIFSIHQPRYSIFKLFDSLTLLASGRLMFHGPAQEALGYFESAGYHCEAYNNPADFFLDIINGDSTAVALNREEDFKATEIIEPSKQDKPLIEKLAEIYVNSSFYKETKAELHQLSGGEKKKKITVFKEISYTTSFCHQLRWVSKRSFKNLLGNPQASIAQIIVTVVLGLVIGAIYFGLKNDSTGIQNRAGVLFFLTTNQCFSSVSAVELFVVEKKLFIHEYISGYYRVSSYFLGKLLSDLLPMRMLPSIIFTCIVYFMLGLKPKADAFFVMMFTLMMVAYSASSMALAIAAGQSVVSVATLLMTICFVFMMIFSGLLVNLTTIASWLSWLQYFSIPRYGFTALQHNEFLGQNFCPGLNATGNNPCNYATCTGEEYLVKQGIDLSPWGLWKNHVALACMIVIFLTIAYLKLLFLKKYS
Description: (§2) Calcein-AM was applied to measure the transport activity of Pgp[51], while ABCG2 mediated transport was measured in mitoxantrone accumulation tests[18]. Cells were harvested and washed three times in PBS containing 7 mM glucose (gl-PBS). […] Dead cells were excluded from the analysis on the basis of propidium iodide (PI) staining.
(§3) Flow cytometric analysis was carried out on a Becton Dickinson FACSAria III Cell Sorter (Becton Dickinson, Mountain View, CA, USA). Calcein was excited by the 488 nm line of a solid state laser and the emitted light was detected using a 502 nm dichroic mirror and a 530/30 nm band-pass filter. […] AlexaFluor647 and mitoxantrone signals were detected with a 633 nm excitation laser and a 660/20 nm band-pass filter.

Pgp [5] = target: T2, Pgp (Homo sapiens, UniProt P08183); experiment: Calcein accumulation test (Pgp transport activity) in NIH 3T3 MDR1 cells; settings: 20 min pre-treatment 37 °C, 500 nM calcein-AM 20 min
Description: as §2, §3

[6] = tested on: Pgp-positive and Pgp-negative NIH 3T3 cells; experiment: AlamarBlue in vitro cytotoxicity assay; assay type: cell-based, mouse; settings: 72 h, NIH 3T3 and NIH 3T3 MDR1, Supplementary Fig. S3
Description: Supplementary Fig. S3: Cytotoxic effect of retinyl-acetate on Pgp-positive and Pgp-negative NIH 3T3 cells. The AlamarBlue (Serotec, UK) based in vitro cytotoxicity assay was performed as previously described 1. Cells were seeded in 96-well plates at a cell density of 5 × 10^3 cells/well. 24 hours later retinyl-acetate was added at different concentrations and the plates were further incubated for 72 h at 37 °C. The cell viability was determined measuring the 530/590 nm fluorescence intensity of the dye in an automated microplate reader (BioTec Synergy HT, US). The AlamarBlue fluorescence intensity of the samples was normalized to the fluorescence of the retinyl-acetate untreated samples, and plotted as a function of retinyl-acetate concentration. The data points are means of eight parallel samples (±SD).
(§1) (1 picture or pasted object on this page, not shown here)

Pgp [7] = target: T2, Pgp; settings: Sf9 membranes, Fig. 2c
Description: (§4) For ATPase activity measurements we used membrane samples derived from Sf9 (Spodoptera frugiperda) insect ovarian cells expressing human Pgp or ABCG2. cDNAs of the transporters were cloned into recombinant baculovirus transfer vectors, the Sf9 insect ovarian cells were cultured, and infected with the baculoviruses as described in ref. [52]. Sf9 cells overexpressing human Pgp and ABCG2 were harvested and cell membranes were isolated. The protein concentration of the membrane samples were determined by the Lowry method[53]. The ABCG2 expressing Sf9 membrane samples were loaded with cholesterol by cholesterol-methyl-beta-cyclodextrine complex in order to obtain high specific ATPase activity of the transporter[54]. Membrane samples were stored at −80 °C. The transporter expression of the membrane samples (5 μg membrane protein/slot) was routinely checked by immunoblot using the G-1 mAb (for Pgp) or BXP-21 mAb (for ABCG2) and a goat anti-mouse HRP-conjugated IgG secondary antibody. Both primary and secondary antibodies were from Santa Cruz Biotechnology Inc. (CA, USA) and applied at 1:5,000 dilution.
(§5) The vanadate-sensitive ATPase activity of Pgp and ABCG2 was determined by a colorimetric assay described in refs [32],[55]. Specific ATPase activity of the transporters was calculated from the amount of released inorganic phosphate. […] The absorbance of the samples was measured at 700 nm using a BioTek Synergy HT plate reader (BioTek Instruments, Winooski, USA).

[8] = tested on: Pgp- and ABCG2-negative NIH 3T3 and MDCK cells; experiment: Calcein and mitoxantrone accumulation in transporter negative cells; assay type: cell-based, mouse / canine; settings: NIH 3T3 (calcein) and MDCK (mitoxantrone), Supplementary Fig. S1, 50 µM
Description: Supplementary Fig. S1: Effect of retinoid derivatives on the calcein (a) and
mitoxantrone (c) accumulation and viability (b, d) of Pgp- and ABCG2-negative NIH
3T3 and MDCK cells. Cells were pre-treated with retinoids added at 50 µM concentration
Cell viability was determined on the basis of propidium iodide exclusion.
as §1

Pgp [9] = target: T2, Pgp; experiment: biochemical; settings: IC50 values, Pgp stimulated (verapamil-stimulated) ATPase activity, 40 μM verapamil; Sf9 membranes; mean ± SEM, n=3
Description: as §4, §5

[10] = target: P-gp (human Pgp), basal vanadate-sensitive ATPase activity (Homo sapiens, UniProt P08183); experiment: in vitro; settings: membranes of Sf9 insect cells expressing human Pgp, IC50 values, 10 min pre-incubation 37 °C, 3 mM ATP/Mg2+ 25 min, mean ± SEM, n=3
Description: as §4, §5

ABCG2 [11] = target: T1, ABCG2; experiment: Vanadate-sensitive ATPase activity of ABCG2 in Sf9 membrane preparations; assay type: biochemical; settings: cholesterol-loaded Sf9 membranes, mean ± SEM, n=3
Description: For ATPase activity measurements we used membrane samples derived from Sf9 (Spodoptera frugiperda) insect ovarian cells expressing human Pgp or ABCG2. cDNAs of the transporters were cloned into recombinant baculovirus transfer vectors, the Sf9 insect ovarian cells were cultured, and infected with the baculoviruses as described in ref. [52]. Sf9 cells overexpressing human Pgp and ABCG2 were harvested and cell membranes were isolated. The protein concentration of the membrane samples were determined by the Lowry method. The ABCG2 expressing Sf9 membrane samples were loaded with cholesterol by cholesterol-methyl-beta-cyclodextrine complex in order to obtain high specific ATPase activity of the transporter. Membrane samples were stored at −80 °C. The transporter expression of the membrane samples (5 μg membrane protein/slot) was routinely checked by immunoblot using the G-1 mAb (for Pgp) or BXP-21 mAb (for ABCG2) and a goat anti-mouse HRP-conjugated IgG secondary antibody. Both primary and secondary antibodies were from Santa Cruz Biotechnology Inc. (CA, USA) and applied at 1:5,000 dilution.
The vanadate-sensitive ATPase activity of Pgp and ABCG2 was determined by a colorimetric assay described in refs [32],[55]. Specific ATPase activity of the transporters was calculated from the amount of released inorganic phosphate. […]. The absorbance of the samples was measured at 700 nm using a BioTek Synergy HT plate reader (BioTek Instruments, Winooski, USA).
The half-inhibitory doses (IC50) of retinoids were determined by fitting the dose-response relationships with a four parameter sigmoidal curve, where Amax and Amin are the ATPase activities measured at zero and at infinitely high inhibitor concentrations, respectively, n is the Hill coefficient and x is the concentration of the inhibitor:
Upon studying the kinetics of inhibition of the substrate-stimulated ATPase activity by retinoids data points were fitted with a modified form of the Michaelis-Menten equation[56] which includes the Hill coefficient, n: […]
v0 is the basal ATPase activity measured in the absence of the stimulatory substrate, while vmax is the maximal extent of ATPase stimulation and KM is the Michaelis constant (i.e. the substrate concentration at which the reaction rate is half of vmax).

T2 sequence (P08183 whole entry): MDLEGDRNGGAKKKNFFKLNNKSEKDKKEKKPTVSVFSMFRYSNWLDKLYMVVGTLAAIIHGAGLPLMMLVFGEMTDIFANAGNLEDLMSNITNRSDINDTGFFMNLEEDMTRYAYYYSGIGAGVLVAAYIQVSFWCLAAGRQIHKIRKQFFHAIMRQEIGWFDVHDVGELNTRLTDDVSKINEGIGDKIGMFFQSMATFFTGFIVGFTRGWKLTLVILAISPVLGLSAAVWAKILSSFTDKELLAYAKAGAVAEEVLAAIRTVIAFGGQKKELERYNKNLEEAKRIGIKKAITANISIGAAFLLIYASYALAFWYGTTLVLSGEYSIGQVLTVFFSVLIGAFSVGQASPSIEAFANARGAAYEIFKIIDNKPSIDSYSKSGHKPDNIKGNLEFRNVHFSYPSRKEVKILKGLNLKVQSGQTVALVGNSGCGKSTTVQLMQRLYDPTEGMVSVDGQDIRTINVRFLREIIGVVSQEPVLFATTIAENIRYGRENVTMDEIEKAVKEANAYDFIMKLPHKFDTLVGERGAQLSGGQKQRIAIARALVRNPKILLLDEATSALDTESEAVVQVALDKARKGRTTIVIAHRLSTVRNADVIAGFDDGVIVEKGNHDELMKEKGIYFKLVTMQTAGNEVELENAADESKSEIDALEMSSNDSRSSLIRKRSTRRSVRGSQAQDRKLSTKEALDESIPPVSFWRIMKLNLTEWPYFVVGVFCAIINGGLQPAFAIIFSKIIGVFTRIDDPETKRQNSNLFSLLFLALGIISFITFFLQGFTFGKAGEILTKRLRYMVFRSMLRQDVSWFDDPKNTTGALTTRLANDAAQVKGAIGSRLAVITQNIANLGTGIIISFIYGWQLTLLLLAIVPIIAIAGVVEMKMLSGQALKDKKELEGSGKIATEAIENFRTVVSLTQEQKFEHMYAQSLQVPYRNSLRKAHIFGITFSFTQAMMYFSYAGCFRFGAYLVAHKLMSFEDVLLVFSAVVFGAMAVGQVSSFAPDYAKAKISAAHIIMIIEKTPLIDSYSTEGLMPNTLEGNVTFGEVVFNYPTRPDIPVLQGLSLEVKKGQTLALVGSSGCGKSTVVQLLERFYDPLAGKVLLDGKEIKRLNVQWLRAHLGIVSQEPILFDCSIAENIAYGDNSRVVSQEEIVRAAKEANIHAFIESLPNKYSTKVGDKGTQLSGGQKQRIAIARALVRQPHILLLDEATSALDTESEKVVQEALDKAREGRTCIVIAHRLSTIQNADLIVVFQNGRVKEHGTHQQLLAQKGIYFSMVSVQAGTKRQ
Sequence of P-gp (human Pgp), basal vanadate-sensitive ATPase activity (P08183 whole entry): as above

Row | Effect on the basal ATPase activity of Pgp (Pgp [7]) | IC50 (Pgp [9]) | IC50 at 25 min [10] | IC50 (ABCG2 [11]; 10 μM quercetin, read-out: IC50 values, ABCG2 stimulated (quercetin-stimulated) ATPase activity) | IC50 (ABCG2 [11]; read-out: IC50 values, ABCG2 basal ATPase activity) | Compound | Effect on DPH fluorescence anisotropy [1] | LogP (octanol-water partition coefficient, LogPow) [2] | Effect on TMA-DPH fluorescence anisotropy [3] | Effect on DPH anisotropy in transporter expressing compared to non-expressing cells ([1]; Pgp+ vs Pgp− NIH 3T3, ABCG2 expressing vs non-expressing MDCK) | Effect on mitoxantrone accumulation of ABCG2 expressing cells (ABCG2 transport activity) (ABCG2 [4]) | Effect on calcein accumulation of Pgp expressing cells (Pgp transport activity) (Pgp [5]) | Cytotoxicity profile in Pgp+ versus Pgp− cells [6] | Effect on substrate accumulation of transporter negative cells [8]
1 | – | – | – | – | – | COc1ccc2c3c([nH]c2c1)[C@H](CC(C)C)N1C(=O)[C@H](CCC(=O)OC(C)(C)C)NC(=O)[C@@H]1C3 [Ko143] | do not affect the overall membrane fluidity | 3.5 | do not affect the overall membrane fluidity | – | – | – | – | –
2 | slightly stimulated | 19.1 ± 5 µM | 36.8 ± 4 µM | 70.4 ± 7.3 µM | 18.9 ± 4 µM | CC(=O)OC/C=C(C)/C=C/C=C(C)/C=C/C1=C(C)CCCC1(C)C [Retinyl-acetate] | increased the DPH fluorescence anisotropy values significantly | 6.3 | – | significantly lower effect | increased the cellular accumulation of the fluorescent transporter substrates in a concentration dependent manner | increased the cellular accumulation of the fluorescent transporter substrates in a concentration dependent manner | identical cytotoxicity profile | did not have any effect
